Results published in patent US20240287154A1, “MC3R AGONIST PEPTIDES” (The Regents of the University of Michigan, priority 2021, published 2024).
Non-standard residues stand in square brackets, D forms with d. Residues, ends and D or L forms follow the SMILES beside them. Phe(4-Cl) = N[C@@H](Cc1ccc(Cl)cc1)C(=O)O; Phe(4-I) = N[C@@H](Cc1ccc(I)cc1)C(=O)O; Nle = CCCC[C@H](N)C(=O)O; dNMeA = CN[C@H](C)C(=O)O; Aib = CC(C)(N)C(=O)O

These compounds were tested against human MC4R (Homo sapiens, UniProt P32245) (assay: Intracellular cAMP levels in live cells, MC3R selectivity relative to MC4R). Settings: cAMP assays in human MC3R and human MC4R stable cell lines.
human MC4R, sequence (P32245 whole entry): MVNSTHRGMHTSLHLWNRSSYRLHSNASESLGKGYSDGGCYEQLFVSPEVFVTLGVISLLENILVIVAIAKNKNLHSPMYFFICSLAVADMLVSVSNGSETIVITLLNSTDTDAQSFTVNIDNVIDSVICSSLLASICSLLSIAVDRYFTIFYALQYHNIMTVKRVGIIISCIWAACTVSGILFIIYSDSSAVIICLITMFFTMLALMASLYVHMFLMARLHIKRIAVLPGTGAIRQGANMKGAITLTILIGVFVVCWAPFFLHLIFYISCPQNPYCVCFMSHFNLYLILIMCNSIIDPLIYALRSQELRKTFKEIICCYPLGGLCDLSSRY
Assay type: cell-based
Description: The stable cell lines were grown and maintained in selection media consisting of Dulbecco's modified Eagle media (DMEM) with 4.5 g/l D-glucose, and 4 mM L-glutamine (Thermo Fisher Scientific, Waltham, MA), supplemented with 10% fetal bovine serum, 100 units/ml penicillin, 100 μg/ml streptomycin, 2.5 μg/ml amphotericin B, 200 μg/ml hygromycin B (for positive selection of the GScAMP22f luciferase reporter), and Geneticin™ (G418) 700 μg/ml (for MC3R or MC4R selection). Actual serum concentration during the assay is estimated to be about 1%. Cell line identity is routinely verified by qPCR and MC3R- and MC4R-specific oligonucleotides.
The assay for the determination of the CAMP response in live cells was described previously. […] Ccells were seeded at a density of 20,000 cells per well using 384-well poly-D lysine-coated, clear bottom, and black-wall assay plates (Corning Inc. Corning, NJ). Cells were allowed to attach to the plates for 18 to 24 h after which growth media was removed and 20 ul of 4% D-luciferin (Promega) in CO2 independent, serum-free medium (Thermo Fisher Scientific) was added to each well. […] Intracellular cAMP levels were measured using an FDSS 7000EX Functional Drug Screening System (Hamamatsu Photonics, Hamamatsu, Japan) in the Center for Chemical Genomics at the Life Sciences Institute. This instrument allowed the in-line addition of test-peptides and receptor agonists while simultaneously acquiring the luminescence signal from live cells. […] A submaximal forskolin (20 μM) concentration was also included to serve as a normalization reference to account for cell number variations and differences in assay transducer efficiency between cell lines.
With this set up it was possible to evaluate the direct agonist effect of the test-peptides on the MC3R and MC4R cell lines during measurement window 1, while the antagonist profile in the presence of EC90 α-MSH was determined on measurement window 2. […] EC50 or IC50 potency values were determined by non-linear regression by fitting the data to a sigmoid four-parameter variable slope model using the GraphPad Prism version 8.4 software package (San Diego CA).

Row | Compound | MC3R selectivity (relative to MC4R)
1 | CCCC[C@H](NC(C)=O)C(=O)N[C@H](C)C(=O)N[C@@H](Cc1c[nH]cn1)C(=O)N[C@@H](Cc1ccccc1)C(=O)N[C@@H](CCCNC(=N)N)C(=O)N[C@H](Cc1c[nH]c2ccccc12)C(=O)N[C@@H](CC(=O)O)C(=O)N[C@@H](CCCNC(=N)N)C(=O)N[C@@H](Cc1ccccc1)C(N)=O [CTX-1158, Nle-D-Ala-His-Phe-Arg-D-Trp-Asp-Arg-Phe] (Ac-[Nle][dA]HFR[dW]DRF-NH2) | 535
2 | CCCC[C@H](NC(C)=O)C(=O)N[C@H](C)C(=O)N[C@@H](Cc1c[nH]cn1)C(=O)N[C@@H](Cc1ccccc1)C(=O)N[C@@H](CCCNC(=N)N)C(=O)N[C@H](Cc1c[nH]c2ccccc12)C(=O)N[C@@H](CC(=O)O)C(=O)N[C@@H](C)C(=O)N[C@@H](Cc1ccccc1)C(=O)NCC(=O)O [CTX-1534, Nle-D-Ala-His-Phe-Arg-D-Trp-Asp-Ala-Phe-Gly] (Ac-[Nle][dA]HFR[dW]DAFG-OH) | 186
3 | CSCC[C@H](NC(=O)[C@@H](NC(=O)[C@@H](N)Cc1ccc(O)cc1)C(C)C)C(=O)NCC(=O)N[C@@H](CCCNC(=N)N)C(=O)N[C@@H](Cc1ccccc1)C(=O)N[C@@H](CCCNC(=N)N)C(=O)N[C@H](Cc1c[nH]c2ccccc12)C(=O)N[C@@H](CC(=O)O)C(=O)N[C@@H](CCCNC(=N)N)C(=O)N[C@@H](Cc1ccccc1)C(=O)NCC(=O)O [CTX-1548, Tyr-Val-Met-Gly-Arg-Phe-Arg-D-Trp-Asp-Arg-Phe-Gly] (H-YVMGRFR[dW]DRFG-OH) | 267
4 | CC(=O)N[C@H](C(=O)NCC(=O)N[C@@H](Cc1c[nH]cn1)C(=O)N[C@H](Cc1ccccc1)C(=O)N[C@@H](CCCNC(=N)N)C(=O)N[C@H](Cc1c[nH]c2ccccc12)C(=O)N[C@@H](CC(=O)O)C(N)=O)[C@@H](C)O [CTX-1113, Thr-Gly-His-D-Phe-Arg-D-Trp-Asp] (Ac-TGH[dF]R[dW]D-NH2) | 0.4
5 | CCCC[C@H](NC(C)=O)C(=O)N[C@H](C)C(=O)N[C@@H](Cc1c[nH]cn1)C(=O)N[C@@H](Cc1ccccc1)C(=O)N[C@@H](CCCNC(=N)N)C(=O)N[C@H](Cc1c[nH]c2ccccc12)C(=O)N[C@@H](CCCC)C(=O)N[C@@H](CCCNC(=N)N)C(=O)N[C@@H](Cc1ccccc1)C(=O)NCC(=O)O [CTX-1532, Nle-D-Ala-His-Phe-Arg-D-Trp-Nle-Arg-Phe-Gly] (Ac-[Nle][dA]HFR[dW][Nle]RFG-OH) | 184
6 | CCCC[C@H](NC(C)=O)C(=O)N[C@H](C)C(=O)N[C@@H](Cc1c[nH]cn1)C(=O)N[C@@H](Cc1ccccc1)C(=O)N[C@@H](CCCNC(=N)N)C(=O)N[C@H](Cc1c[nH]c2ccccc12)C(=O)N[C@@H](CC(=O)O)C(=O)N[C@@H](CCCCN)C(=O)N[C@@H](Cc1ccccc1)C(=O)NCC(=O)O [CTX-1535, Nle-D-Ala-His-Phe-Arg-D-Trp-Asp-Lys-Phe-Gly] (Ac-[Nle][dA]HFR[dW]DKFG-OH) | 1,589
7 | CCCC[C@H](NC(C)=O)C(=O)N[C@H](C)C(=O)N[C@@H](Cc1c[nH]cn1)C(=O)N[C@@H](Cc1ccccc1)C(=O)N[C@@H](CCCNC(=N)N)C(=O)N[C@H](Cc1c[nH]c2ccccc12)C(=O)N[C@@H](CC(=O)O)C(=O)N[C@@H](CCCNC(=N)N)C(=O)N[C@H](Cc1ccccc1)C(N)=O [CTX-1159, Nle-D-Ala-His-Phe-Arg-D-Trp-Asp-Arg-D-Phe] (Ac-[Nle][dA]HFR[dW]DR[dF]-NH2) | 213
8 | CCCC[C@H](NC(C)=O)C(=O)N[C@H](C)C(=O)N[C@@H](CCCNC(=N)N)C(=O)N[C@@H](Cc1ccc(I)cc1)C(=O)N[C@@H](CCCNC(=N)N)C(=O)N[C@H](Cc1c[nH]c2ccccc12)C(=O)N[C@@H](CC(=O)O)C(=O)N[C@@H](CCCNC(=N)N)C(=O)N[C@@H](Cc1ccccc1)C(=O)NCC(=O)O [CTX-1197, Nle-D-Ala-Arg-Phe(4-I)-Arg-D-Trp-Asp-Arg-Phe-Gly] (Ac-[Nle][dA]R[Phe(4-I)]R[dW]DRFG-OH) | 250
9 | CCCC[C@H](NC(C)=O)C(=O)N[C@H](C)C(=O)N[C@@H](Cc1c[nH]cn1)C(=O)N[C@@H](Cc1ccccc1)C(=O)N[C@@H](CCCNC(=N)N)C(=O)N[C@H](Cc1c[nH]c2ccccc12)C(=O)N[C@@H](CC(=O)O)C(N)=O [CTX-1123, Nle-D-Ala-His-Phe-Arg-D-Trp-Asp] (Ac-[Nle][dA]HFR[dW]D-NH2) | 28
10 | CCCC[C@H](NC(C)=O)C(=O)NC(C)(C)C(=O)N[C@@H](Cc1c[nH]cn1)C(=O)N[C@@H](Cc1ccccc1)C(=O)N[C@@H](CCCNC(=N)N)C(=O)N[C@H](Cc1c[nH]c2ccccc12)C(=O)N[C@@H](CC(=O)O)C(=O)N[C@@H](CCCNC(=N)N)C(=O)N[C@@H](Cc1ccccc1)C(=O)NCC(=O)O [CTX-1143, Nle-Aib-His-Phe-Arg-D-Trp-Asp-Arg-Phe-Gly] (Ac-[Nle][Aib]HFR[dW]DRFG-OH) | 3544
11 | CCCC[C@H](NC(C)=O)C(=O)N[C@H](C)C(=O)N[C@@H](Cc1c[nH]cn1)C(=O)N[C@@H](Cc1ccccc1)C(=O)N[C@@H](CCCNC(=N)N)C(=O)N[C@H](Cc1c[nH]c2ccccc12)C(=O)N[C@@H](CC(=O)O)C(=O)N[C@@H](CCCNC(=N)N)C(=O)N1CCC[C@H]1C(=O)NCC(=O)O [CTX-1536, Nle-D-Ala-His-Phe-Arg-D-Trp-Asp-Arg-Pro-Gly] (Ac-[Nle][dA]HFR[dW]DRPG-OH) | 72
12 | CCCC[C@H](NC(C)=O)C(=O)N[C@H](C)C(=O)N[C@@H](Cc1c[nH]cn1)C(=O)N[C@@H](Cc1ccccc1)C(=O)N[C@@H](CCCNC(=N)N)C(=O)N[C@H](Cc1c[nH]c2ccccc12)C(=O)N[C@H](Cc1ccccc1)C(N)=O [CTX-1542, Nle-D-Ala-His-Phe-Arg-D-Trp-D-Phe] (Ac-[Nle][dA]HFR[dW][dF]-NH2) | 15
13 | CC(=O)N[C@H](C(=O)NCC(=O)N[C@@H](Cc1c[nH]cn1)C(=O)N[C@@H](Cc1ccccc1)C(=O)N[C@@H](CCCNC(=N)N)C(=O)N[C@H](Cc1c[nH]c2ccccc12)C(=O)N[C@@H](CC(=O)O)C(N)=O)[C@@H](C)O [CTX-1112, Thr-Gly-His-Phe-Arg-D-Trp-Asp] (Ac-TGHFR[dW]D-NH2) | 8.6
14 | CCCC[C@H](NC(C)=O)C(=O)N[C@H](C)C(=O)N[C@@H](Cc1c[nH]cn1)C(=O)N[C@@H](Cc1ccccc1)C(=O)N[C@@H](CCCNC(=N)N)C(=O)N[C@H](Cc1c[nH]c2ccccc12)C(=O)N[C@@H](CCCCN)C(=O)N[C@@H](CCCNC(=N)N)C(=O)N[C@@H](Cc1ccccc1)C(=O)NCC(=O)O [CTX-1533, Nle-D-Ala-His-Phe-Arg-D-Trp-Lys-Arg-Phe-Gly] (Ac-[Nle][dA]HFR[dW]KRFG-OH) | 314
15 | CCCC[C@H](NC(=O)[C@@H](NC(=O)[C@@H](N)Cc1ccc(O)cc1)C(C)C)C(=O)NC(C)(C)C(=O)N[C@@H](Cc1c[nH]cn1)C(=O)N[C@@H](Cc1ccccc1)C(=O)N[C@@H](CCCNC(=N)N)C(=O)N[C@H](Cc1c[nH]c2ccccc12)C(=O)N[C@@H](CC(=O)O)C(N)=O [CTX-1130, Tyr-Val-Nle-Aib-His-Phe-Arg-D-Trp-Asp] (H-YV[Nle][Aib]HFR[dW]D-NH2) | 58
16 | CCCC[C@H](NC(C)=O)C(=O)N[C@H](C)C(=O)N[C@@H](Cc1c[nH]cn1)C(=O)N[C@@H](Cc1ccc(Cl)cc1)C(=O)N[C@@H](CCCNC(=N)N)C(=O)N[C@H](Cc1c[nH]c2ccccc12)C(=O)N[C@@H](CC(=O)O)C(=O)N[C@@H](CCCNC(=N)N)C(=O)N[C@@H](Cc1ccccc1)C(=O)NCC(=O)O [CTX-1166, Nle-D-Ala-His-Phe(4-Cl)-Arg-D-Trp-Asp-Arg-Phe-Gly] (Ac-[Nle][dA]H[Phe(4-Cl)]R[dW]DRFG-OH) | 3099
17 | CCCC[C@H](NC(C)=O)C(=O)N(C)[C@H](C)C(=O)N[C@@H](Cc1c[nH]cn1)C(=O)N[C@@H](Cc1ccccc1)C(=O)N[C@@H](CCCNC(=N)N)C(=O)N[C@H](Cc1c[nH]c2ccccc12)C(=O)N[C@@H](CC(=O)O)C(=O)N[C@@H](CCCNC(=N)N)C(=O)N[C@@H](Cc1ccccc1)C(=O)NCC(=O)O [CTX-1183, Nle-NMe-D-Ala-His-Phe-Arg-D-Trp-Asp-Arg-Phe-Gly] (Ac-[Nle][dNMeA]HFR[dW]DRFG-OH) | 515
18 | CC(=O)N[C@@H](Cc1ccc(O)cc1)C(=O)N[C@H](C(=O)N[C@@H](CCC(=O)O)C(=O)NC(C)(C)C(=O)N[C@@H](Cc1c[nH]cn1)C(=O)N[C@@H](Cc1ccc(I)cc1)C(=O)N[C@@H](CCCNC(=N)N)C(=O)N[C@H](Cc1c[nH]c2ccccc12)C(=O)N[C@@H](CC(=O)O)C(=O)N[C@@H](CCCNC(=N)N)C(=O)N[C@@H](Cc1ccccc1)C(=O)NCC(=O)O)C(C)C [CTX-1195, Tyr-Val-Glu-Aib-His-Phe(4-I)-Arg-D-Trp-Asp-Arg-Phe-Gly] (Ac-YVE[Aib]H[Phe(4-I)]R[dW]DRFG-OH) | 51
